The values that follow come from patent US12024531B2, “Immunoproteasome inhibitors” (Principia Biopharma Inc., priority 2017, dated 2024).

Some results are limits rather than exact numbers.

Usually IC50 stands for the concentration that gives 50% inhibition.

Common to all, as to format: biochemical
In assay [1] the target is constitutive proteasome β5c subunit (Homo sapiens, UniProt P28074). In words: Caliper-based proteasome enzymatic activity assay, β5c. To be noted: human recombinant constitutive proteasome 0.3 nM, FAM peptide substrate 1 μM, rt 3 h.
Assay [2] deals with immunoproteasome LMP7/B5i subunit (Homo sapiens, UniProt P28062). The assay is described as follows: Caliper-based proteasome enzymatic activity assay, LMP7. To be noted: human recombinant immunoproteasome 0.3 nM, FAM peptide substrate 1 μM, rt 3 h.
The target of assay [3] is immunoproteasome LMP2 subunit (Homo sapiens, UniProt P28065). In words: Caliper-based proteasome enzymatic activity assay, LMP2. To be noted: human recombinant immunoproteasome 0.3 nM, FAM peptide substrate 1 μM, rt 2 h.

With `CCN(C(=O)C(C#N)=Cc1cccc(CCOC(=O)N[C@@H](Cc2ccccc2)B(O)O)c1)C(C)C` [Example 64, (R)-(1-(((3-(2-cyano-3-(ethyl(isopropyl)amino)-3-oxoprop-1-en-1-yl)phenethoxy)carbonyl)amino)-2-phenylethyl)boronic Acid], the results for the IC50 in assay [1], in assay [2] and in assay [3] were 1920 nM, 2.5 nM and 4540 nM, respectively.
Consider `C[C@@H]1COC[C@@H](C)N1C(=O)C(C#N)=Cc1cccc(CCOC(=O)N[C@@H](Cc2ccccc2)B(O)O)c1` [Example 65, ((R)-1-(((3-(2-cyano-3-((3R,5R)-3,5-dimethylmorpholino)-3-oxoprop-1-en-1-yl)phenethoxy)carbonyl)amino)-2-phenylethyl)boronic Acid], for which the values for the IC50 in assay [1], in assay [2] and in assay [3] were 1190 nM, 0.6 nM and 3560 nM, respectively.
With `N#CC(=Cc1ccc2c(c1)CN(CC(=O)N[C@@H](Cc1ccccc1)B(O)O)CC2)c1ccccn1` [Example 66, (R)-(1-(2-(7-(2-cyano-2-(pyridin-2-yl)vinyl)-3,4-dihydroisoquinolin-2(1H)-yl)acetamido)-2-phenylethyl)boronic Acid], the IC50 in assay [1] turned out to be 33.3 nM; in assay [2], 4.6 nM; in assay [3] it was 74.4 nM.
Regarding `C[C@H]1COC[C@H](C)N1C(=O)C(C#N)=Cc1cccc(CCOC(=O)N[C@@H](Cc2ccccc2)B(O)O)c1` [Example 68, ((R)-1-(((3-(2-cyano-3-((3S,5S)-3,5-dimethylmorpholino)-3-oxoprop-1-en-1-yl)phenethoxy)carbonyl)amino)-2-phenylethyl)boronic Acid], the IC50 in assay [1] was more than 5000 nM; in assay [2], 0.7 nM; in assay [3] it was more than 5000 nM.
`CCN(C(=O)C(C#N)=Cc1cccc(CCOC(=O)N[C@@H](Cc2ccccc2)B(O)O)c1)C(C)(C)C` [Example 69, (R)-(1-(((3-(3-(tert-butyl(ethyl)amino)-2-cyano-3-oxoprop-1-en-1-yl)phenethoxy)carbonyl)amino)-2-phenylethyl)boronic Acid]: the IC50 in assay [1] is 3020 nM; in assay [2] it was 2.2 nM; in assay [3], 3190 nM.
Regarding `CN(C(=O)C(C#N)=Cc1cccc(CCOC(=O)N[C@@H](Cc2ccccc2)B(O)O)c1)C(C)(C)C` [Example 71, (R)-(1-(((3-(3-(tert-butyl(methyl)amino)-2-cyano-3-oxoprop-1-en-1-yl)phenethoxy)carbonyl)amino)-2-phenylethyl)boronic Acid], the IC50 in assay [1] was 2420 nM; in assay [2], 0.9 nM; in assay [3], 2010 nM.
On to `N#CC(=Cc1cccc(CCOC(=O)N[C@@H](Cc2ccccc2)B(O)O)c1)C(=O)N(C1CCOCC1)C1CCOCC1` [Example 72, (R)-(1-(((3-(3-(bis(tetrahydro-2H-pyran-4-yl)amino)-2-cyano-3-oxoprop-1-en-1-yl)phenethoxy)carbonyl)amino)-2-phenylethyl)boronic Acid], for which the IC50 is more than 5000 nM in assay [1], 1.4 nM in assay [2] and more than 5000 nM in assay [3].
Consider `N#CC(=Cc1cccc(CCNC(=O)N[C@@H](Cc2ccccc2)B(O)O)c1)c1ccc(C(F)(F)F)cn1` [Example 73, (R)-(1-(3-(3-(2-cyano-2-(5-(trifluoromethyl)pyridin-2-yl)vinyl)phenethyl)ureido)-2-phenylethyl)boronic Acid], for which the IC50 in assay [1] amounted to 1900 nM; in assay [2] it was 66.4 nM; in assay [3], 2000 nM.
Turning to `N#CC(=Cc1cc(CO)cc(CCOC(=O)N[C@@H](Cc2ccccc2)B(O)O)c1)c1ccccn1` [Example 76, (R)-(1-(((3-(2-cyano-2-(pyridin-2-yl)vinyl)-5-(hydroxymethyl)phenethoxy)carbonyl)amino)-2-phenylethyl)boronic Acid], the IC50 was 3410 nM in assay [1], 3.2 nM in assay [2] and more than 5000 nM in assay [3].
Consider `Cc1ccc(C[C@H](NC(=O)NCCc2cccc(C=C(C#N)c3ccccn3)c2)B(O)O)cc1` [Example 77, (R)-(1-(3-(3-(2-cyano-2-(pyridin-2-yl)vinyl)phenethyl)ureido)-2-(p-tolyl)ethyl)boronic Acid], for which the IC50 was 2150 nM in assay [1], 42 nM in assay [2] and more than 5000 nM in assay [3].
Take `N#CC(=Cc1cccc(CCOC(=O)N[C@@H](Cc2ccccc2)B(O)O)c1)c1ccc(C#N)cn1` [Example 78, (R)-(1-(((3-(2-cyano-2-(5-cyanopyridin-2-yl)vinyl)phenethoxy)carbonyl)amino)-2-phenylethyl)boronic Acid]: the IC50 in assay [1] was determined as 390 nM; in assay [2], 1.6 nM; in assay [3], 690 nM.
Consider `CC1(C)COCCN1C(=O)C(C#N)=Cc1cccc(CCOC(=O)N[C@@H](Cc2ccccc2)B(O)O)c1` [Example 79, (R)-(1-(((3-(2-cyano-3-(3,3-dimethylmorpholino)-3-oxoprop-1-en-1-yl)phenethoxy)carbonyl)amino)-2-phenylethyl)boronic Acid], for which the IC50 was 998 nM in assay [1], 0.9 nM in assay [2] and 1600 nM in assay [3].
In the same order, the values of `Cc1ccc(C[C@H](NC(=O)NCCc2cccc(C=C(C#N)c3ccc(C(F)(F)F)cn3)c2)B(O)O)cc1` [Example 80, (R)-(1-(3-(3-(2-cyano-2-(5-(trifluoromethyl)pyridin-2-yl)vinyl)phenethyl)ureido)-2-(p-tolyl)ethyl)boronic Acid] are 2570 nM, 43 nM and more than 5000 nM.
Regarding `Cc1ccc(C[C@H](NC(=O)OCCc2cccc(C=C(C#N)c3ccc(C(F)(F)F)cn3)c2)B(O)O)cc1` [Example 81, (R)-(1-(((3-(2-cyano-2-(5-(trifluoromethyl)pyridin-2-yl)vinyl)phenethoxy)carbonyl)amino)-2-(p-tolyl)ethyl)boronic Acid], the IC50 in assay [1] came out at 438 nM; in assay [2], 5.2 nM; in assay [3], 2830 nM.
Regarding `CCN(CC)C(=O)C(C#N)=Cc1cccc(CCNC(=O)N[C@@H](Cc2ccc(C)cc2)B(O)O)c1` [Example 82, (R)-(1-(3-(3-(2-cyano-3-(diethylamino)-3-oxoprop-1-en-1-yl)phenethyl)ureido)-2-(p-tolyl)ethyl)boronic Acid], the values for the half-maximal inhibitory concentration (IC50) in assay [1], in assay [2] and in assay [3] were more than 5000 nM, 24 nM and more than 5000 nM, respectively.
As for `Cc1ccc(C[C@H](NC(=O)NCCc2cccc(C=C(C#N)c3ncccn3)c2)B(O)O)cc1` [Example 83, (R)-(1-(3-(3-(2-cyano-2-(pyrimidin-2-yl)vinyl)phenethyl)ureido)-2-(p-tolyl)ethyl)boronic Acid], the figures for the IC50 in assay [1], in assay [2] and in assay [3] were 1970 nM, 37 nM and more than 5000 nM, respectively.
In the case of `Cn1cnc(C(C#N)=Cc2cccc(CCOC(=O)N[C@@H](Cc3ccccc3)B(O)O)c2)cc1=O` [Example 84, (R)-(1-(((3-(2-cyano-2-(1-methyl-6-oxo-1,6-dihydropyrimidin-4-yl)vinyl)phenethoxy)carbonyl)amino)-2-phenylethyl)boronic Acid], the IC50 came to 240 nM in assay [1], 1.9 nM in assay [2] and 2020 nM in assay [3].
Take `Cc1ccc(C[C@H](NC(=O)OCCc2cccc(C=C(C#N)C(=O)N3[C@H](C)COC[C@H]3C)c2)B(O)O)cc1` [Example 85, ((R)-1-(((3-(2-cyano-3-((3R,5R)-3,5-dimethylmorpholino)-3-oxoprop-1-en-1-yl)phenethoxy)carbonyl)amino)-2-(p-tolyl)ethyl)boronic Acid]: the IC50 in assay [1] is 1170 nM; in assay [2], 1.1 nM; in assay [3], more than 5000 nM.
Take `CCN(CC)C(=O)C(C#N)=Cc1cccc(CCOC(=O)N[C@@H](Cc2ccc(Cl)cc2)B(O)O)c1` [Example 86, (R)-(2-(4-chlorophenyl)-1-(((3-(2-cyano-3-(diethylamino)-3-oxoprop-1-en-1-yl)phenethoxy)carbonyl)amino)ethyl)boronic Acid]: the IC50 is 779 nM in assay [1], 0.9 nM in assay [2] and more than 5000 nM in assay [3].
Consider `Cc1ccc(C[C@H](NC(=O)OCCc2cccc(C=C(C#N)c3ncccn3)c2)B(O)O)cc1` [Example 87, (R)-(1-(((3-(2-cyano-2-(pyrimidin-2-yl)vinyl)phenethoxy)carbonyl)amino)-2-(p-tolyl)ethyl)boronic Acid], for which the IC50 in assay [1] is 197 nM; in assay [2] it was 1.6 nM; in assay [3], more than 5000 nM.
In the same order, the values of `CCN(C(=O)C(C#N)=Cc1cccc(CCOC(=O)N[C@@H](Cc2ccc(C)cc2)B(O)O)c1)C1CCOCC1` [Example 88, (R)-(1-(((3-(2-cyano-3-(ethyl(tetrahydro-2H-pyran-4-yl)amino)-3-oxoprop-1-en-1-yl)phenethoxy)carbonyl)amino)-2-(p-tolyl)ethyl)boronic Acid] are 802 nM, 1.2 nM and more than 5000 nM.
With `Cc1ccc(C[C@H](NC(=O)OCCc2cccc(C=C(C#N)C(=O)N3C4CCC3COC4)c2)B(O)O)cc1` [Example 89, ((1R)-1-(((3-(3-(3-oxa-8-azabicyclo[3.2.1]octan-8-yl)-2-cyano-3-oxoprop-1-en-1-yl)phenethoxy)carbonyl)amino)-2-(p-tolyl)ethyl)boronic Acid], the figures for the IC50 in assay [1], in assay [2] and in assay [3] were 869 nM, 0.5 nM and more than 5000 nM, respectively.
For `CCN(C)C(=O)C(C#N)=Cc1cccc(CCOC(=O)N[C@@H](Cc2ccccc2)B(O)O)c1` [Example 90, (R)-(1-(((3-(2-cyano-3-(ethyl(methyl)amino)-3-oxoprop-1-en-1-yl)phenethoxy)carbonyl)amino)-2-phenylethyl)boronic Acid] the same measures were more than 5000 nM, 4.6 nM and more than 5000 nM.
In the case of `CN(CC(F)(F)F)C(=O)C(C#N)=Cc1cccc(CCOC(=O)N[C@@H](Cc2ccccc2)B(O)O)c1` [Example 91, (R)-(1-(((3-(2-cyano-3-(methyl(2,2,2-trifluoroethyl)amino)-3-oxoprop-1-en-1-yl)phenethoxy)carbonyl)amino)-2-phenylethyl)boronic Acid], the IC50 in assay [1] is 3840 nM; in assay [2], 2.3 nM; in assay [3], more than 5000 nM.
